In patent US12357603B2, “Acyl sulfonamides for treating cancer” (Bayer Aktiengesellschaft, priority 2019, dated 2025) one finds EC50 and IC50 data, which are given here for 20 molecules.

The structures appear in SMILES notation. Read-outs that look alike come from different tables or passages of the source.

One assay has as its system ZR-75-1 cells. The experiment in a line: Proliferation assay ZR-75-1 (Alamar Blue, 144 h). Format: cell-based. The conditions noted are these: arithmetic mean, read-out: ZR75-1 proliferation assay, EC50 [M] (arithmetic mean). The method, boiled down:
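Cells seeded at 3000/well in RPMI 1640 with 2.5% FBS and treated 24 h later across 2.0×10E-5 to 2.0×10E-9 M (9 dilutions, 0.2% DMSO, triplicate). After 144 h at 37 °C, 5% CO2, viability read by Alamar Blue fluorescence at 590 nm following 2 h reagent incubation.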

For assay [1], the target named is Recombinant human His-tagged Kat6a protein (amino acids 194-810) (Homo sapiens (Human), UniProt Q92794). Kind of assay: Kat6a activity assay (TR-FRET, acetylation of biotinylated Histone-H4-derived peptide). Format: biochemical. The conditions noted are these: 60 mins at 22° C., read-out: KAT6A-DPF/HAT domain IC50 [mol/l] (arithmetic mean). The method, boiled down:
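Sf9-expressed human His-Kat6a (aa 194-810) incubated 60 min at 22 °C with compounds (0.01-20 μM) in Tris pH 8 buffer containing 220 nM biotinylated H4 peptide (aa 1-24) and 600 nM acetyl-CoA. Acetyl-K8 detected by TR-FRET (665/620 nm ratio); IC50 by four-parameter fit versus DMSO controls.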

The test system of assay [2] is ESR1 transcription (luciferase signal in MVLN cells). The experiment in a line: Repression of ESR1 transcription, luciferase reporter in MVLN cells. Format: cell-based. As to conditions: inhibition of luciferase signal in MVLN cells, arithmetic mean. The method, boiled down:
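MVLN cells (constitutive ER, stably carrying a Vitellogenin A2 hormone-responsive element–luciferase reporter) treated in duplicate; luciferase read after 24 h. Cell density checked by Alamar Blue fluorescence (530/590 nm) after 2 h to exclude cell-loss effects.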

Assay [3] concerns the target Recombinant human GST-tagged Kat6b protein (431-end). Kind of assay: Kat6b activity assay (TR-FRET, acetylation of biotinylated Histone-H4-derived peptide). Format: biochemical. The conditions noted are these: 30 mins at 22° C., read-out: KAT6B activity assay IC50 [mol/l] (arithmetic mean).
A further assay has as its system MDA-MB-436 cells. The experiment in a line: Proliferation assay MDA-MB-436, negative control cell line (Alamar Blue, 144 h). As to conditions: arithmetic mean. Format: cell-based. The method, boiled down: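 MDA-MB-436 cells (3000/well, DMEM/Ham's F12 with 2.5% FBS) treated 24 h after plating with compounds at 2.0×10E-5 to 2.0×10E-9 M (9 dilutions, 0.2% DMSO), triplicates, 144 h at 37 °C, 5% CO2. Viability by Alamar Blue, 2 h, fluorescence at 590 nm.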

Setting [4] is: Homo sapiens, MDA-MB-436, 144 h.

Sequence of Recombinant human His-tagged Kat6a protein (amino acids 194-810) (Q92794 194-810): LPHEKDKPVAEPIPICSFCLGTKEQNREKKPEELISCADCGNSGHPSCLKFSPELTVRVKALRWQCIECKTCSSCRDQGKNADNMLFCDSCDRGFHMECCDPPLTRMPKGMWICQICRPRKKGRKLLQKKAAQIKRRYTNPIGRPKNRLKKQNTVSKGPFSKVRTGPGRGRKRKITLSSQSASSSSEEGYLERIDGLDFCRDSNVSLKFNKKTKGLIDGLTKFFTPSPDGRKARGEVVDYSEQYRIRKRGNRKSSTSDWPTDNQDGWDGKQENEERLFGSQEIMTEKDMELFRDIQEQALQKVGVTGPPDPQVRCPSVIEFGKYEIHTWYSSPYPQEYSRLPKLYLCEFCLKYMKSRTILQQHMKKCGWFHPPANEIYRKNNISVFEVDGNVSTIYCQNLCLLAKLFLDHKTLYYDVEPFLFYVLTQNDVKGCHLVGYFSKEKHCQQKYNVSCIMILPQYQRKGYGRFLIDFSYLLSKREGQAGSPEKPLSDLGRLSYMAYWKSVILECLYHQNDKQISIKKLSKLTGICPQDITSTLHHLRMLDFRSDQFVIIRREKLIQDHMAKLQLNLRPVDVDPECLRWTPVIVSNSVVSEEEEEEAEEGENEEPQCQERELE

With `CCOc1cccc(-c2cccc(Cl)c2)c1S(=O)(=O)NC(=O)c1cc2ccc(N(C)C)cc2o1` [Example 25, N-(3′-Chloro-3-ethoxy[1,1′-biphenyl]-2-sulfonyl)-6-(dimethylamino)-1-benzofuran-2-carboxamide], the EC50 in the assay with ZR-75-1 cells (Homo sapiens, ZR-75-1, 144 h) was 1.5e-07 M; in the assay with MDA-MB-436 cells (setting [4]), 18 µM. Further, the IC50 in assay [1] was 31.1 nM; in assay [2] (Homo sapiens, MVLN), 139 nM; in assay [3] it was 50.6 nM.

Take `CCOc1ccccc1S(=O)(=O)NC(=O)c1cc2c(F)cc(N(C)C)cc2o1` [Example 13, 6-(Dimethylamino)-N-(2-ethoxybenzene-1-sulfonyl)-4-fluoro-1-benzofuran-2-carboxamide]: the EC50 with ZR-75-1 cells (Homo sapiens, ZR-75-1, 144 h) is 2.28e-08 M; with MDA-MB-436 cells (setting [4]), more than 20 µM. Besides, the IC50 turned out to be 12.5 nM in assay [1]; 16.7 nM in assay [2] (Homo sapiens, MVLN); 11.6 nM in assay [3].

On to `CCCOc1ccccc1S(=O)(=O)NC(=O)c1cc2c(F)cc(N(C)C)cc2o1` [Example 111, 6-(Dimethylamino)-4-fluoro-N-(2-propoxybenzene-1-sulfonyl)-1-benzofuran-2-carboxamide], for which the EC50 was 4.89e-08 M with ZR-75-1 cells (Homo sapiens, ZR-75-1, 144 h) and more than 20 µM in the assay on MDA-MB-436 cells (setting [4]). The IC50 was 8.93 nM in assay [1]; 15.4 nM in assay [2] (Homo sapiens, MVLN); 19 nM in assay [3].

`CCN(CC)c1ccc2cc(C(=O)NS(=O)(=O)c3ccccc3-c3ccccc3)oc2c1` [Example 38, N-([1,1′-Biphenyl]-2-sulfonyl)-6-(diethylamino)-1-benzofuran-2-carboxamide]: the EC50 in the assay on ZR-75-1 cells (Homo sapiens, ZR-75-1, 144 h) is 1.45e-05 M; in the assay with MDA-MB-436 cells (setting [4]), more than 20 µM. For the same molecule, the IC50 in assay [1] is 975 nM; in assay [2] (Homo sapiens, MVLN) it was 4990 nM; in assay [3], 1890 nM.

In the case of `CCOc1ccccc1S(=O)(=O)NC(=O)c1cc2ccc(N(C)c3ccccc3)cc2o1` [Example 6, N-(2-Ethoxyphenyl)sulfonyl-6-(N-methylanilino)benzofuran-2-carboxamide], the EC50 is more than 2e-05 M in the assay with ZR-75-1 cells (Homo sapiens, ZR-75-1, 144 h) and more than 20 µM in the assay on MDA-MB-436 cells (setting [4]). Also, the IC50 in assay [1] was 1830 nM; in assay [2] (Homo sapiens, MVLN) it was more than 20000 nM; in assay [3], 4280 nM.

As to `CN(C)c1ccc2cc(C(=O)NS(=O)(=O)c3cc(C(C)(C)C)ccc3OCc3ccccc3)oc2c1` [Example 179, N-[(2-(Benzyloxy)-5-(tert-butyl)phenyl)sulfonyl]-6-(dimethylamino)benzofuran-2-carboxamide], the EC50 in the assay on ZR-75-1 cells (Homo sapiens, ZR-75-1, 144 h) was 6.79e-08 M; in the assay with MDA-MB-436 cells (setting [4]), more than 20 µM. Also, the IC50 in assay [1] came out at 8.95 nM; in assay [2] (Homo sapiens, MVLN) it was 15.9 nM; in assay [3], 19.4 nM.

As for `CN(C)c1ccc2cc(C(=O)NS(=O)(=O)c3ccccc3OCCNC(=O)OC(C)(C)C)oc2c1` [Example 117, tert-butyl [2-(2-{[6-(dimethylamino)-1-benzofuran-2-carbonyl]sulfamoyl}phenoxy)ethyl]carbamate], the EC50 with ZR-75-1 cells (Homo sapiens, ZR-75-1, 144 h) was 6.03e-07 M; in the assay on MDA-MB-436 cells (setting [4]), more than 20 µM. Moreover, the IC50 came out at 294 nM in assay [1]; 276 nM in assay [2] (Homo sapiens, MVLN); 342 nM in assay [3].

Take `CCN(C)c1ccc2cc(C(=O)NS(=O)(=O)c3ccccc3-c3ccccc3)oc2c1` [Example 1, 6-[Ethyl(methyl)amino]-N-(2-phenylphenyl)sulfonyl-benzofuran-2-carboxamide]: the EC50 is 8.93e-07 M in the assay with ZR-75-1 cells (Homo sapiens, ZR-75-1, 144 h) and more than 20 µM in the assay with MDA-MB-436 cells (setting [4]). The IC50 in assay [1] amounted to 599 nM; in assay [2] (Homo sapiens, MVLN), 1840 nM; in assay [3] it was 836 nM.

For `O=C(NS(=O)(=O)c1ccccc1-c1ccccc1)c1cc2ccc(N3CCCCC3)cc2o1` [Example 47, N-([1,1′-Biphenyl]-2-sulfonyl)-6-(piperidin-1-yl)-1-benzofuran-2-carboxamide], the EC50 with ZR-75-1 cells (Homo sapiens, ZR-75-1, 144 h) was more than 2e-05 M; with MDA-MB-436 cells (setting [4]) it was more than 20 µM. The IC50 was 7800 nM in assay [1]; more than 20000 nM in assay [2] (Homo sapiens, MVLN); 15900 nM in assay [3].

In the case of `CN(C)c1ccc2cc(C(=O)NS(=O)(=O)c3ccccc3OCCF)oc2c1` [Example 72, 6-(Dimethylamino)-N-[2-(2-fluoroethoxy)benzene-1-sulfonyl]-1-benzofuran-2-carboxamide], the EC50 in the assay with ZR-75-1 cells (Homo sapiens, ZR-75-1, 144 h) is 1.31e-07 M; with MDA-MB-436 cells (setting [4]), more than 20 µM. Also, the IC50 amounted to 96.7 nM in assay [1]; 76.5 nM in assay [2] (Homo sapiens, MVLN); 190 nM in assay [3].

Regarding `CC(C)Cc1ccc2cccc(S(=O)(=O)NC(=O)c3cc4ccc(N(C)C)cc4o3)c2n1` [Example 93, 6-(Dimethylamino)-N-[2-(2-methylpropyl)quinoline-8-sulfonyl]-1-benzofuran-2-carboxamide], the EC50 with ZR-75-1 cells (Homo sapiens, ZR-75-1, 144 h) was 8.56e-07 M; in the assay on MDA-MB-436 cells (setting [4]) it was more than 20 µM. The IC50 was determined as 100 nM in assay [1]; 457 nM in assay [2] (Homo sapiens, MVLN); 173 nM in assay [3].

As to `CN(c1ccccc1)c1ccc2cc(C(=O)NS(=O)(=O)c3ccccc3)oc2c1` [Example 7], the EC50 with ZR-75-1 cells (Homo sapiens, ZR-75-1, 144 h) was more than 2e-05 M; in the assay with MDA-MB-436 cells (setting [4]) it was more than 20 µM. For the same molecule, the IC50 is 9600 nM in assay [1]; more than 20000 nM in assay [2] (Homo sapiens, MVLN); more than 20000 nM in assay [3].

In the case of `CCOc1ccc(C(C)C)cc1S(=O)(=O)NC(=O)c1cc2ccc(N(C)C)cc2o1` [Example 129, 6-(Dimethylamino)-N-[2-ethoxy-5-(propan-2-yl)benzene-1-sulfonyl]-1-benzofuran-2-carboxamide], the EC50 in the assay on ZR-75-1 cells (Homo sapiens, ZR-75-1, 144 h) was 6.17e-07 M; with MDA-MB-436 cells (setting [4]) it was more than 20 µM. Besides, the IC50 worked out at 13.5 nM in assay [1]; 28.6 nM in assay [2] (Homo sapiens, MVLN); 16.8 nM in assay [3].

Turning to `COc1cc(C)c(Cl)cc1S(=O)(=O)NC(=O)c1cc2ccc(N(C)C)cc2o1` [Example 138, N-(5-Chloro-2-methoxy-4-methylbenzene-1-sulfonyl)-6-(dimethylamino)-1-benzofuran-2-carboxamide], the EC50 in the assay with ZR-75-1 cells (Homo sapiens, ZR-75-1, 144 h) was 5.01e-07 M; in the assay on MDA-MB-436 cells (setting [4]), more than 20 µM. In addition, the IC50 in assay [1] came to 56.7 nM; in assay [2] (Homo sapiens, MVLN), 216 nM; in assay [3], 79.5 nM.

Consider `Cc1ccc(S(=O)(=O)NC(=O)c2cc3ccc(N(C)C)cc3o2)c(-c2ccccc2)c1` [Example 24, 6-(Dimethylamino)-N-(5-methyl[1,1′-biphenyl]-2-sulfonyl)-1-benzofuran-2-carboxamide], for which the EC50 with ZR-75-1 cells (Homo sapiens, ZR-75-1, 144 h) was 1.33e-07 M; in the assay with MDA-MB-436 cells (setting [4]), more than 20 µM. The IC50 in assay [1] stood at 31 nM; in assay [2] (Homo sapiens, MVLN), 181 nM; in assay [3], 49 nM.

In the case of `Cc1ccc2cccc(S(=O)(=O)NC(=O)c3cc4c(C(F)(F)F)cc(N(C)C)cc4o3)c2n1` [Example 196, 6-(Dimethylamino)-N-((2-methylquinolin-8-yl)sulfonyl)-4-(trifluoromethyl)benzofuran-2-carboxamide], the EC50 in the assay on ZR-75-1 cells (Homo sapiens, ZR-75-1, 144 h) is 2.12e-06 M; with MDA-MB-436 cells (setting [4]), more than 14.1 µM. Further, the IC50 in assay [1] amounted to 1.47 nM; in assay [2] (Homo sapiens, MVLN), 295 nM; in assay [3], 1.78 nM.

In the case of `CCOc1ccc(CC)cc1S(=O)(=O)NC(=O)c1cc2ccc(N(C)C)cc2o1` [Example 143, 6-(Dimethylamino)-N-(2-ethoxy-5-ethylbenzene-1-sulfonyl)-1-benzofuran-2-carboxamide], the EC50 with ZR-75-1 cells (Homo sapiens, ZR-75-1, 144 h) is 6.42e-08 M; in the assay on MDA-MB-436 cells (setting [4]) it was more than 20 µM. The IC50 in assay [1] was determined as 29.3 nM; in assay [2] (Homo sapiens, MVLN) it was 40.8 nM; in assay [3] it was 43.1 nM.

With `CCOc1ccccc1S(=O)(=O)NC(=O)c1cc2ccc(N(C)CC)cc2o1` [Example 5, N-(2-Ethoxyphenyl)sulfonyl-6-[ethyl(methyl)amino]benzofuran-2-carboxamide], the EC50 in the assay with ZR-75-1 cells (Homo sapiens, ZR-75-1, 144 h) was 8.76e-07 M; in the assay with MDA-MB-436 cells (setting [4]), more than 20 µM. Further, the IC50 in assay [1] was found to be 1100 nM; in assay [2] (Homo sapiens, MVLN) it was 520 nM; in assay [3] it was 495 nM.

Take `Cc1ccc2cccc(S(=O)(=O)NC(=O)c3cc4ccc(N(C)C)cc4o3)c2n1` [Example 21, 6-(Dimethylamino)-N-(2-methylquinoline-8-sulfonyl)-1-benzofuran-2-carboxamide]: the figures for the EC50 in the assay with ZR-75-1 cells and in the assay on MDA-MB-436 cells were 4.21e-08 M and 15.3 µM, respectively. For the same molecule, the IC50 amounted to 23.4 nM in assay [1], 48.5 nM in assay [2] and 26.7 nM in assay [3].

As for `CN(C)c1ccc2cc(C(=O)NS(=O)(=O)c3ccccc3OC3COC3)oc2c1` [Example 82, 6-(Dimethylamino)-N-{2-[(oxetan-3-yl)oxy]benzene-1-sulfonyl}-1-benzofuran-2-carboxamide], the EC50 in the assay with ZR-75-1 cells (Homo sapiens, ZR-75-1, 144 h) is 2e-07 M; in the assay on MDA-MB-436 cells (setting [4]) it was more than 20 µM. In addition, the IC50 in assay [1] was determined as 237 nM; in assay [2] (Homo sapiens, MVLN), 201 nM; in assay [3] it was 265 nM.
